Source: publication PMC6389703, “Identification of Biologically Active Ganoderma lucidum Compounds and Synthesis of Improved Derivatives That Confer Anti-cancer Activities in vitro” (Frontiers in Pharmacology, 2019)
Like-named read-outs stand apart in the source and are kept apart here.

What was measured:
[1] = test system: various breast cancer cell lines; experiment: Cell viability (CellTiter-Glo or PI staining), various breast cancer cell lines; assay type: cell-based, human; settings: for EC50: Homo sapiens, 72-h treatment, CellTiter-Glo or PI staining
Description: (§1) Either 1 × 10^3–4.8 × 10^3 or 4 × 10^2–1.2 × 10^3 cells were seeded to each well of 96- or 384-well white polystyrene flat-bottomed plates (3610 or 8804BC, Corning) in 100 μL or 30 μL media per well, respectively. The concentrations used were experimentally determined to ensure logarithmic growth during the duration of the experiment and prevent adverse effects on cell growth by DMSO exposure. The plates were incubated at 37°C in 5% CO2 for 24 h before treatment. Stock solutions of test compounds (10 mM in DMSO) in nine 3-fold serial dilutions were dispensed via pintool (Biomek). The final concentration of DMSO was 0.3% (v/v) in each well. The plates were incubated for 72 h at 37°C in 5% CO2 and then quenched with CellTiter-Glo® reagent (50 μL/well in 96-well plate, 30 μL/well in 384-well plate) at RT. The positive controls included staurosporine (10 μM), gambogic acid (10 μM), and a toxic quinoline generated in-house. Plates were then incubated at RT for 20 min and centrifuged at 1000 rpm for 1 min. The cytotoxicity assay was performed by using the CellTiter-Glo® Luminescent Cell Viability Assay kit (G7570, Promega, Madison, WI, United States) according to the manufacturer’s instructions. Luminescence was recorded in an Envision plate reader (PerkinElmer).
(§2) Cell viability assays (MTT or PI staining assays) in SUM-149, SUM-190, MDA-MB-231, and MCF10A cells were performed as we previously described ([Suarez-Arroyo et al., 2016]).
(§3) For the CTG assay, 3 or 4 replicate assays were conducted for each experimental condition, and a minimum of 3 independent experiments were conducted for cellular assays. The mean luminescence of each experimental treatment group was normalized as a percentage of the mean intensity of untreated controls. EC50 values (μM) were calculated by Pipeline Pilot Software (Accelrys, Enterprise Platform, San Diego, CA, United States). EC50 values (μM) from the viability assay were calculated from dose response curve-fitting via non-linear regression by using GraphPad Prism (Version 7.0, San Diego, CA, United States). For cell viability, colony formation, cell-cycle progression, cell death, and western blot assays, the analyses were performed via one-way or two-way ANOVA with post-testing for each condition (concentration, cell cycle stage, apoptotic event, cell line) by using GraphPad Prism.

[2] = test system: MDA-MB-231 cells; experiment: ApoTox-Glo Triplex assay, MDA-MB-231; assay type: cell-based, human; settings: MDA-MB-231, 24 h
Description: (§4) Cells (9.5 × 10^4/well in 75 μL of fresh medium) were dispensed in 96-well black flat bottom (8807BC, Corning) plates. The cells were incubated for 12 h at 37°C and then treated with compounds (25 μL) for 24 h. DMSO was used as a negative control, and staurosporine was used as the positive control. […] Then, the Caspase-Glo® 3/7 Reagent was added; plates were mixed briefly by orbital shaking (300-500 rpm for ∼30 s), followed by an additional 30 min incubation at RT. Then luminescence, which correlates with caspase 3/7 activation, was recorded with a plate reader to […] apoptosis induction.

[3] = test system: MCF-7 cells; experiment: ROS measurement (CellROX green), MCF-7; assay type: cell-based, human; settings: for ROS increase (fold): GA-01, ergosterol, 5,6-dehydroergosterol 50 µM, EP 20 µM; for ROS formation reduction when co-treated with NAC: NAC 100 µM, TBHP 100 µM
Description: (§5) SUM-149 or MDA-MB-231 were plated in 96-well plates at a density of 2 × 10^4 and 1 × 10^4 cells/well, respectively, in black 96-well clear bottom tissue culture plates and incubated for 24 h at 37°C. The mRuby-Mito-7 plasmid was obtained from Addgene (#55874 from Michael Davidson). A stable clone of MCF-7 was generated by using Fugene 6 (Roche) to transfect cells (2 × 10^5) with plasmid (2.0 μg) under neomycin selection. A stable cell line was selected by using G418 (300 μg/mL) for 2 weeks, sorted by flow cytometry, and maintained under G418 thereafter. Transfected MCF-7 cells were plated at a density of 2 × 10^4 cells/well in black 96-well clear bottom tissue culture plates and incubated overnight at 37°C. To test for ROS formation and remove background, cells were replenished with fresh PBS with 2% FBS and treated with the desired compounds for 1 h at 37°C. DMSO (0.5%) was used as a negative control, while Menadione (Mena, at 10 μM) or t-Butyl hydroperoxide (TBHP) at 100 μM final concentration were used as a positive control. To evaluate the compounds’ effects on ROS formation inhibition, the free radical scavenger N-acetyl cysteine (NAC) was used. Cells were treated with or without NAC (500 μM or 100 μM) for 1 h, then CellROX® green reagent (Molecular Probes #C10444) was added to a final concentration of 5 μM, and cells were incubated for an additional 30 min at 37°C. Cells were then washed 2× with PBS, followed by fixation with 4% paraformaldehyde (v/v) for 15 min, and 2 more washes with PBS. Fluorescence intensity was measured in a Clariostar® plate reader (BMG LABTECH, Cary, NC, United States) at 535 nm.

[4] = test system: SUM-149 cells; experiment: ApoTox-Glo Triplex assay, SUM-149; assay type: cell-based, human; settings: SUM-149, 24 h
Description: as §4

[5] = test system: MDA-MB-231 cells; experiment: De novo in-cell protein synthesis (click assay); assay type: cell-based, human; settings: 2 h; EP 20 μM
Description: First, 2.5 × 10^4 cells/well were seeded in 8-well μ-slides (Ibidi®, #80826) and incubated at 37°C for 12 h. The cells were treated with vehicle, compounds Ganoderic acid A or EP, or cycloheximide (positive control) for 2 h to determine protein synthesis as nascent proteins generated using Biovision’s EZClick^TM Global Protein Synthesis Assay Kit, (#K715-100, Milpitas, CA, United States). The assay includes a robust chemical method based on an alkyne containing o-propargyl-puromycin (OP-puro) probe, which stops translation by forming covalent conjugates with nascent polypeptide chains. Truncated polypeptides are rapidly turned over by the proteasome and can be detected based on the subsequent click reaction with a fluorescent azide. The reaction was conducted according to the manufacturer’s protocol. Cells were imaged at 20× with a Nikon C2 scanning confocal microscope, and the whole image montage was quantified by using Gen5 Software and Lionheart^TM FX Automated Microscope (BioTek, Winooski, VT, United States).

[6] = test system: BJ cells; experiment: cells; assay type: cell-based
Description: as §1, §3

[7] = test system: SUM-149 cells; experiment: Cell viability assay, SUM-149; assay type: cell-based, human
Description: as §1, §2, §3

[8] = test system: MDA-MB-231 cells; experiment: ROS measurement (CellROX green), MDA-MB-231; assay type: cell-based, human; settings: NAC 500 μM; menadione 10 μM
Description: as §5, with “Cells were treated with or without NAC (500 μM or 100 μM) for 1 h, then CellROX® green reagent (Molecular Probes #C10444) was added to a final concentration of 5 μM, and cells were incubated for an additional 30 min at 37°C. Cells were then washed 2× with PBS, followed by fixation with 4% paraformaldehyde (v/v) for 15 min, and 2 more washes with PBS.” left out

[9] = test system: SUM-149 cells; experiment: ROS measurement (CellROX green), SUM-149; assay type: cell-based, human; settings: NAC 500 μM; EP 20 μM, menadione 10 μM
Description: as §5

[10] = physchem; settings: organic solvent or mixture
[11] = test system: evaluated cell lines; experiment: Cell viability, evaluated cell lines (palmitic acid); assay type: cell-based; settings: tested concentration ≤100μM
Description: Either 1 × 10^3–4.8 × 10^3 or 4 × 10^2–1.2 × 10^3 cells were seeded to each well of 96- or 384-well white polystyrene flat-bottomed plates (3610 or 8804BC, Corning) in 100 μL or 30 μL media per well, respectively. The concentrations used were experimentally determined to ensure logarithmic growth during the duration of the experiment and prevent adverse effects on cell growth by DMSO exposure. The plates were incubated at 37°C in 5% CO2 for 24 h before treatment. Stock solutions of test compounds (10 mM in DMSO) in nine 3-fold serial dilutions were dispensed via pintool (Biomek). The final concentration of DMSO was 0.3% (v/v) in each well. […] Luminescence was recorded in an Envision plate reader (PerkinElmer). […]
as §3, with “For cell viability, colony formation, cell-cycle progression, cell death, and western blot assays, the analyses were performed via one-way or two-way ANOVA with post-testing for each condition (concentration, cell cycle stage, apoptotic event, cell line) by using GraphPad Prism.” left out

SMILES: C[C@H](CC(=O)C[C@@H](C)[C@H]1C[C@H](O)[C@@]2(C)C3=C(C(=O)C[C@]12C)[C@@]1(C)CCC(=O)C(C)(C)[C@@H]1C[C@@H]3O)C(=O)O [GA-01, ganoderic acid A]
- EC50 [1]: > 50 µM
- caspase 3/7 activity [2]: increase caspase 3/7 activity
- viability (GF-AFC) [2]: decrease viability
- ROS increase (fold) [3]: at least a twofold
- ROS formation reduction when co-treated with NAC [3]: 9–25%
- caspase 3/7 activity [4]: increase caspase 3/7 activity
- viability (GF-AFC) [4]: decrease viability
- de novo protein synthesis inhibition [5]: do not inhibit
- cytotoxic effects in normal BJ cells ([6]; at the concentrations tested): did not induce cytotoxic effects

SMILES: CC(C)[C@@H](C)/C=C/[C@@H](C)[C@H]1CC[C@H]2C3=CC=C4C[C@@H](O)CC[C@]4(C)[C@H]3CC[C@]12C [ergosterol]
- EC50 [1]: > 50 µM
- concentration from which cancer cell viability is significantly reduced ([1]; breast cancer cellular models): 64 µM
- ROS increase (fold) [3]: at least a twofold
- ROS formation reduction when co-treated with NAC [3]: 9–25%
- concentration at which SUM-149 cell viability is significantly reduced ([7]; 72 h): 64 µM
- cytotoxic effects in normal BJ cells [6]: did not induce cytotoxic effects

SMILES: CC(C)C(C)C=CC(C)C1CCC2C3=CCC4CC(O)CCC4(C)C3CCC21C (stereo not shown)
- EC50 [1]: > 50 µM
- ROS increase (fold) [3]: at least a twofold
- ROS formation reduction when co-treated with NAC [3]: 9–25%
- cytotoxic effects in normal BJ cells [6]: did not induce cytotoxic effects

SMILES: CC1=CC(=O)c2ccccc2C1=O [menadione, Menadione, reference compound]
- reduction in ROS formation in the presence of NAC [8]: about 20%
- reduction in ROS formation in the presence of NAC [9]: about 20%

SMILES: CC(C)[C@@H](C)/C=C/[C@@H](C)[C@H]1CC[C@H]2C34C=CC5(C[C@@H](OC(=O)NS(=O)(=O)c6ccccc6)CC[C@]5(C)C3CC[C@]12C)OO4 (stereo partly shown) [EP sulfonamide, ergosterol peroxide sulfonamide]
- EC50 ([7]; Homo sapiens, SUM149, SUM-149, Figure 10A, read-out: EC50, cancer cell viability (derivatives)): 12 µM
- solubility [10]: ≥ 10 mM
- cytotoxic effects in normal BJ cells ([6]; at the concentrations tested): minimal

SMILES: CCCCCCCCCCCCCCCC(=O)O [palmitic acid]
- EC50 ([6]; Homo sapiens, BJ, Cell Titer Glo, 72-h treatment): > 100 µM
- activity in the evaluated cell lines [11]: did not show activity
- activity in the evaluated cell lines ([11]; listed as Palmitic acid): No detected biological activity

SMILES: CC(C)(C)OO [TBHP, t-Butyl hydroperoxide, reference compound]
- ROS formation reduction when co-treated with NAC [3]: ~50%
